{"source": "patent US9173394B2", "about": "“Active agent combinations having insecticidal and acaricidal properties” (BAYER INTELLECTUAL PROPERTY GMBH, priority 2007, dated 2015)", "key": {"Tetranychus urticae": {"test_system": "Tetranychus urticae", "experiment": "Tetranychus urticae test (OP-resistant/spray treatment) (Example D): infested bean leaf discs", "assay_type": "in vivo", "procedure": "(§1) Solvent: 78 parts by weight of acetone\nBean leaf discs (Phaseolus vulgaris) which are infested with all stages of the red spider mite (Tetranychus urticae) are sprayed with an active substance preparation of the desired concentration.\nAfter the desired period of time, the effect is determined in %."}, "Spodoptera frugiperda": {"test_system": "Spodoptera frugiperda", "experiment": "Spodoptera frugiperda larvae test (Example C): sprayed cabbage leaves populated with army worm larvae", "assay_type": "in vivo", "details": "for Destruction in % after 6 d: Table C second series", "source_text": "as §1"}, "Myzus persicae": {"test_system": "Myzus persicae", "experiment": "Myzus persicae test (Example A): spray treatment of infested cabbage leaves", "assay_type": "in vivo", "details": "single active substance", "source_text": "as §1"}, "Phaedon cochleariae": {"test_system": "Phaedon cochleariae", "experiment": "Phaedon cochleariae larvae test (Example B): sprayed cabbage leaves populated with mustard beetle larvae"}, "[1]": {"details": "Phaedon cochleariae, in Brassica oleracea, 144 h, read-out: Destruction in % after 6 d"}}, "note": "Where two headings read alike, the source gives them in different places."}
{"compound": "CN(Cc1cnc(Cl)c(F)c1)C1=CC(=O)OC1", "note": "[Compound (I-6), 4-{[(6-chloro-5-fluoropyrid-3-yl)methyl](methyl)amino}furan-2(5H)-one]", "values": [{"measurement": "Destruction in % after 2 d", "setting": "Tetranychus urticae; 0.16 g/ha", "value": 0, "unit": "%"}, {"measurement": "Destruction in % after 6 d", "setting": "Tetranychus urticae; 4 g/ha", "value": 0, "unit": "%"}, {"measurement": "Destruction in % after 2 d", "setting": "Tetranychus urticae; 20 g/ha", "value": 0, "unit": "%"}, {"measurement": "Destruction in % after 6 d", "setting": "Tetranychus urticae; 100 g/ha", "value": 50, "unit": "%"}, {"measurement": "Destruction in % after 6 d", "setting": "Spodoptera frugiperda; 0.8 g/ha", "value": 0, "unit": "%"}, {"measurement": "Destruction in % after 2 d", "setting": "Spodoptera frugiperda; 4 g/ha, Table C third series", "value": 0, "unit": "%"}, {"measurement": "Destruction in % after 2 d", "setting": "Spodoptera frugiperda; 20 g/ha, Table C first series", "value": 0, "unit": "%"}, {"measurement": "Destruction in % after 2 d", "setting": "Spodoptera frugiperda; 20 g/ha, Table C third series", "value": 0, "unit": "%"}, {"measurement": "Destruction in % after 6 d", "setting": "Spodoptera frugiperda; 20 g/ha", "value": 0, "unit": "%"}, {"measurement": "pest or weed control at 0.16 g/ha", "setting": "Myzus persicae; Myzus persicae, 24 h, after 1 d, read-out: Destruction in % after 1 d", "value": 0, "unit": "%"}, {"measurement": "pest or weed control at 0.16 g/ha", "setting": "Myzus persicae; Myzus persicae, 144 h, after 6 d, read-out: Destruction in % after 6 d", "value": 0, "unit": "%"}, {"measurement": "pest or weed control at 0.8 g/ha", "setting": "Myzus persicae; Myzus persicae, 144 h, 0.8 g/ha, after 6 d, read-out: Destruction in % after 6 d", "value": 70, "unit": "%"}, {"measurement": "Destruction in % after 2 d", "setting": "Phaedon cochleariae; 0.8 g/ha, Table B first series", "value": 0, "unit": "%"}, {"measurement": "Destruction in % after 6 d", "setting": "Phaedon cochleariae; 20 g/ha, Table B second series", "value": 0, "unit": "%"}, {"measurement": "Destruction in % after 2 d", "setting": "Phaedon cochleariae; 100 g/ha, Table B third series", "value": 33, "unit": "%"}, {"measurement": "pest or weed control at 0.16 g/ha", "setting": "Phaedon cochleariae; [1]", "value": 0, "unit": "%"}, {"measurement": "pest or weed control at 0.8 g/ha", "setting": "Phaedon cochleariae; [1]", "value": 0, "unit": "%"}, {"measurement": "pest or weed control at 4 g/ha", "setting": "Phaedon cochleariae; [1]", "value": 0, "unit": "%"}, {"measurement": "pest or weed control at 20 g/ha", "setting": "Phaedon cochleariae; [1]", "value": 0, "unit": "%"}]}
{"compound": "spinosad", "values": [{"measurement": "Destruction in % after 2 d", "setting": "Tetranychus urticae; 4 g/ha", "value": 20, "unit": "%"}, {"measurement": "Destruction in % after 2 d", "setting": "Spodoptera frugiperda; 0.8 g/ha, Table C third series", "value": 0, "unit": "%"}, {"measurement": "Destruction in % after 6 d", "setting": "Myzus persicae; 0.8 g/ha, after 6 d", "value": 0, "unit": "%"}, {"measurement": "Destruction in % after 6 d", "setting": "Phaedon cochleariae; 0.8 g/ha, Table B fourth series", "value": 50, "unit": "%"}]}
